In patent publication US20260070895A1, “CRYSTALLINE FORMS” (QUIMATRYX, S.L., priority 2022, published 2026):

Tests used:
[1] = Photostability in solution (THF and water), HPLC; assay type: physicochemical; settings: for HPLC peak area, QTX125 RRT 1.00 / HPLC peak area, RRT 1.04 / HPLC peak area, RRT 1.12 / degradation (in words): in solution (THF and water), sealed under nitrogen in amber glass bottles; for degradation (in words): up to 171 hours
Description: The method for determining purity by HPLC—used throughout these examples—used the following parameters:
The photostability of novel crystalline forms of QTX125 was assessed at solid state and in solution. Where ‘forced illumination’ conditions were used, samples were illuminated at 12 Klux/hour and 2.8 UV W/m^2/hour. Samples were stored at a temperature of 30° C. Following incubation, the chemical purity of QTX125 was measured by HPLC.
The following index is provided to aid navigation of the data presented in Tables 3.1.1 to 3.3.6: • 3.1.x—Assessment of the photostability of QTX125 Form 2. • 3.2.x—Assessment of the photostability of amorphous QTX125. • 3.3.x—Assessment of the photostability of the QTX125 1:2 L-Lysine adduct. • 3.x.1—Samples (at solid state) stored in unsealed clear glass bottles, subject to forced illumination. • 3.x.2—Samples (at solid state) sealed under nitrogen in clear glass bottles, subject to forced illumination. • 3.x.3—Samples (at solid state) sealed under nitrogen in amber glass bottles, illuminated under ambient laboratory conditions • 3.x.4—Samples (at solid state) sealed under nitrogen in amber glass bottles, subject to forced illumination. • 3.x.5—Samples (in solution) sealed under nitrogen in amber glass bottles, illuminated under ambient laboratory conditions. • 3.x.6—Samples (in solution) sealed under nitrogen in amber glass bottles, subject to forced illumination.

[2] = Aqueous solubility at 37° C. (HPLC of filtered suspension); assay type: physicochemical
Description: The solubility of novel crystalline forms of QTX125 was assessed in the following aqueous solutions: (i) phosphate buffer, pH 3.5, 0.9% w/v sodium chloride; (ii) phosphate buffer, pH 6.5, 0.9% w/v sodium chloride; (iii) acetate buffer, pH 4.5, 0.9% w/v sodium chloride; (iv) citro-phosphate buffer, pH 4.5, 0.9% w/v sodium chloride; (v) sodium chloride, 0.9% w/v and (vi) deionised water. All assays were completed at 37° C.
In brief, 30 mg QTX125 was dispensed into vessels followed by 5 mL of the appropriate aqueous buffer. Mixtures were suspended by agitation and heated to 37° C. At various fixed intervals, an 0.4 mL aliquot of the suspension was removed, filtered and diluted for examination by HPLC. A single HPLC reference sample was used.

[3] = ambient laboratory conditions, 171 hours

## NCCCC[C@H](N)C(=O)O.NCCCC[C@H](N)C(=O)O.O=C(NO)c1ccc(CNC(=O)c2[nH]c(-c3ccc(O)cc3)cc2-c2ccoc2)cc1 [QTX125 1:2 L-Lysine adduct]
[1]; [3]
  HPLC peak area, QTX125 RRT 1.00: 93.18%
  HPLC peak area, RRT 1.04: 1.50%
  HPLC peak area, RRT 1.12: 0.97%
[1]; ambient laboratory conditions
  degradation (in words): degrades
[1]; forced illumination, 0 hours
  HPLC peak area, QTX125 RRT 1.00: 96.83%
  HPLC peak area, RRT 1.04: 1.15%
[1]; forced illumination, 3 hours
  HPLC peak area, QTX125 RRT 1.00: 98.01%
  HPLC peak area, RRT 1.04: 0.71%
  HPLC peak area, RRT 1.12: 0.33%
[1]; forced illumination, 50 hours
  HPLC peak area, QTX125 RRT 1.00: 84.17%
  HPLC peak area, RRT 1.04: 1.03%
  HPLC peak area, RRT 1.12: 2.14%
[1]; forced illumination, 171 hours
  HPLC peak area, QTX125 RRT 1.00: 89.96%
  HPLC peak area, RRT 1.04: 2.82%
  HPLC peak area, RRT 1.12: 1.17%
[1]; forced illumination
  degradation (in words): degrades
[1]; in solution, amber glass bottles, ambient laboratory conditions, 171 hours
  photostability as compared to amorphous QTX125 and Form 2: enhanced photostability
[1]; in solution, amber glass bottles, forced illumination, 171 hours
  photostability as compared to amorphous QTX125 or Form 2: enhanced photostability
[1]; stored in solution (conclusion)
  photostability as compared to both QTX125 Form 2 and amorphous QTX125: improved photostability
[2]
  solubility in a saline solution compared to other forms, including an amorphous form: more soluble
[2]; aqueous buffer, 37° C.
  PXRD analysis of the solid recovered at 24 hours: identified the precipitating entity as Form 2
[2]; buffer (i) phosphate buffer, pH 3.5, 0.9% w/v sodium chloride, 37° C., 1 hour
  concentration of QTX125 (solubility): 0.28 µg/mL
[2]; buffer (i) phosphate buffer, pH 3.5, 0.9% w/v sodium chloride, 37° C., 4 hours
  concentration of QTX125 (solubility): 0.33 µg/mL
[2]; buffer (i) phosphate buffer, pH 3.5, 0.9% w/v sodium chloride, 37° C., 7 hours
  concentration of QTX125 (solubility): 0.23 µg/mL
[2]; buffer (i) phosphate buffer, pH 3.5, 0.9% w/v sodium chloride, 37° C., 24 hours
  concentration of QTX125 (solubility): 0.34 µg/mL
[2]; buffer (ii) phosphate buffer, pH 6.5, 0.9% w/v sodium chloride, 37° C., 1 hour
  concentration of QTX125 (solubility): 0.32 µg/mL
[2]; buffer (ii) phosphate buffer, pH 6.5, 0.9% w/v sodium chloride, 37° C., 4 hours
  concentration of QTX125 (solubility): 0.24 µg/mL
[2]; buffer (ii) phosphate buffer, pH 6.5, 0.9% w/v sodium chloride, 37° C., 7 hours
  concentration of QTX125 (solubility): 0.39 µg/mL
[2]; buffer (ii) phosphate buffer, pH 6.5, 0.9% w/v sodium chloride, 37° C., 24 hours
  concentration of QTX125 (solubility): 0.28 µg/mL
[2]; buffer (iii) acetate buffer, pH 4.5, 0.9% w/v sodium chloride, 37° C., 1 hour
  concentration of QTX125 (solubility): 0.25 µg/mL
[2]; buffer (iii) acetate buffer, pH 4.5, 0.9% w/v sodium chloride, 37° C., 4 hours
  concentration of QTX125 (solubility): 0.35 µg/mL
[2]; buffer (iii) acetate buffer, pH 4.5, 0.9% w/v sodium chloride, 37° C., 7 hours
  concentration of QTX125 (solubility): 0.35 µg/mL
[2]; buffer (iii) acetate buffer, pH 4.5, 0.9% w/v sodium chloride, 37° C., 24 hours
  concentration of QTX125 (solubility): 0.33 µg/mL
[2]; buffer (iv) citro-phosphate buffer, pH 4.5, 0.9% w/v sodium chloride, 37° C., 1 hour
  concentration of QTX125 (solubility): 0.33 µg/mL
[2]; buffer (iv) citro-phosphate buffer, pH 4.5, 0.9% w/v sodium chloride, 37° C., 4 hours
  concentration of QTX125 (solubility): 0.29 µg/mL
[2]; buffer (iv) citro-phosphate buffer, pH 4.5, 0.9% w/v sodium chloride, 37° C., 7 hours
  concentration of QTX125 (solubility): 0.37 µg/mL
[2]; buffer (iv) citro-phosphate buffer, pH 4.5, 0.9% w/v sodium chloride, 37° C., 24 hours
  concentration of QTX125 (solubility): 0.27 µg/mL
[2]; buffer (v) sodium chloride, 0.9% w/v, 37° C., 1 hour
  concentration of QTX125 (solubility): 29.81 µg/mL
[2]; buffer (v) sodium chloride, 0.9% w/v, 37° C., 4 hours
  concentration of QTX125 (solubility): 16.91 µg/mL
[2]; buffer (v) sodium chloride, 0.9% w/v, 37° C., 7 hours
  concentration of QTX125 (solubility): 8.51 µg/mL
[2]; buffer (v) sodium chloride, 0.9% w/v, 37° C., 24 hours
  concentration of QTX125 (solubility): 4.52 µg/mL
[2]; buffer (vi) deionised water, 37° C., 1 hour
  concentration of QTX125 (solubility): 24.5 µg/mL
[2]; buffer (vi) deionised water, 37° C., 4 hours
  concentration of QTX125 (solubility): 16.22 µg/mL
[2]; buffer (vi) deionised water, 37° C., 7 hours
  concentration of QTX125 (solubility): 10.14 µg/mL
[2]; buffer (vi) deionised water, 37° C., 24 hours
  concentration of QTX125 (solubility): 7.76 µg/mL
